From paper PMC10607054 (International Journal of Molecular Sciences, 2023) come the findings set out here.

The test system of experiment [1] is PPAR-responsive element (PPRE). Briefly: PPRE-driven (J3TKpGL3, apo-AII promoter) Dual-Luciferase reporter assay in melanoma cells. The experiment is classed as cell-based. The note with it: 10^−4 M, 40 h, human melanoma cells WM239A and A375P; vs non-ligand stimulated control. How it is done: The transcriptional activation of the PPRE promoter was tested using the J3TKpGL3 reporter plasmid, which contains a luciferase gene driven by the PPAR-responsive element (PPRE), which consists of three copies of the J site from the apo-AII gene promoter. The activation of PPAR elements was evaluated in melanoma cells following stimulation with a Firefly–Renilla Dual-Luciferase Reporter System (Promega, Madison, WI, USA). Experiments were carried out using human melanoma line WM239A and A375P (Trust Functional Genomics Cell Bank, London, UK) cells cultured in RPMI culture medium (ThermoFisher Scientific, Waltham, MA, USA) supplemented with 10% fetal bovine serum (EURx, Gdansk, Poland) at 37 °C, with a 5% CO2 content. […] Luciferase activity was measured using a commercial kit (Luciferase Assay System, Promega) according to the instructions of the supplier and assessed in a chemiluminometer (Synergy HT; Bio-Tek, Winooski, VT, USA)) using the Dual-Reporter Luciferase Assay System (Promega, Madison, WI, USA).
In general terms: A reporter such as luciferase makes a cellular process visible.

The target in experiment [2] is T1, PPARγ ligand-binding domain (Homo sapiens, UniProt P37231).
T1 construct: PPARγ-LBD was added to the compounds; purchased Life Technologies Corporation
T1 sequence (P37231 238-503 limits assumed): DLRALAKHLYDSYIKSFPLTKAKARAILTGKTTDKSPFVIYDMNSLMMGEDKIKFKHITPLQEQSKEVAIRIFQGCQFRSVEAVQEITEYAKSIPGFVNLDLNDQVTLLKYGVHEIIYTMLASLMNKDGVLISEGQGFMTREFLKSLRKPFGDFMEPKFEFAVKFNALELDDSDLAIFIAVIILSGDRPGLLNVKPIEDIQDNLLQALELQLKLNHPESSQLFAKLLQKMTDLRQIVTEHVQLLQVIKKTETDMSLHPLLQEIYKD
The experiment is described as follows: LanthaScreen TR-FRET PPARγ Coactivator Assay Kit (binding to PPARγ LBD). The experiment is classed as biochemical. The procedure:
A PPARγ receptor binding assay was performed using the LanthaScreen™ TR-FRET PPARγ Coactivator Assay Kit (Life Technologies Corporation, Grand Island, NY, USA) following the manufacturer’s protocol. Briefly, PPARγ-LBD was added to the compounds, followed by the addition of the antibody (Tb-anti-GST) and a mixture of peptide (Fluorescein-TRAP220/DRIP-2). The reaction mixture was incubated at room temperature for 2 h or overnight.
In general terms: TR-FRET usually uses a lanthanide donor and a delayed reading to cut background.

The target in another experiment is T2, AhR (Homo sapiens, UniProt P35869).
T2 construct: purchased INDIGO Biosciences
T2 sequence (P35869 11-848): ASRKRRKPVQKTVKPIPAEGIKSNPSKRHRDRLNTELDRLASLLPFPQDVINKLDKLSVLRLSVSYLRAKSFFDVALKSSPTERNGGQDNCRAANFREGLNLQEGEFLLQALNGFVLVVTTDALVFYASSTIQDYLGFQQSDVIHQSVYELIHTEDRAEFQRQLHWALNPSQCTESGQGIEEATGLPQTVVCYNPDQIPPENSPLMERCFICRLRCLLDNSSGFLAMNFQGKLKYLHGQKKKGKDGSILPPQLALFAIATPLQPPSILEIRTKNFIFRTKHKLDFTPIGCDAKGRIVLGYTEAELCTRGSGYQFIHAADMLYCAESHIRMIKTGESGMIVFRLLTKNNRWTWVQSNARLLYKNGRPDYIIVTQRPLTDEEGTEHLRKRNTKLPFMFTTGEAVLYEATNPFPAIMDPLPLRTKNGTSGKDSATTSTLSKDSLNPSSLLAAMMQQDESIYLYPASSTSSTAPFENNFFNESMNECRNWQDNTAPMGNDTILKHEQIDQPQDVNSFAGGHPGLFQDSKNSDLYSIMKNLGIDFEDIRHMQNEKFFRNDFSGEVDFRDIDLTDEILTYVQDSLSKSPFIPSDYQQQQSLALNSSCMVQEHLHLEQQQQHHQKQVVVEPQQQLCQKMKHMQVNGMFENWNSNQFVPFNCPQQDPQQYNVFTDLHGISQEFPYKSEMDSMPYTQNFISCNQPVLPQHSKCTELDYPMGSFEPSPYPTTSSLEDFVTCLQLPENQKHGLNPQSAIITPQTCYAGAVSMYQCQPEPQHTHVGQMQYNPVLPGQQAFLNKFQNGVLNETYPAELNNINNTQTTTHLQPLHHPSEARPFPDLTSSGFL
Briefly: cell-based Human AhR Reporter Assay System (luciferase). How it is done: Briefly, the reporter cells were recovered using the cell recovery medium for 5 h. […] Luciferase detection reagent was added after discarding the media and luminescence was measured using a Citation 5 Cell Imaging Multi-Mode Reader (BioTek, Winooski, VT, USA).

Setting [3] is: LanthaScreen TR-FRET PPARγ coactivator assay, PPARγ LBD, two independent dose responses, 3 to 4 replicas per assay, read-out: EC50 (M) PPARγ.
Where [4] appears, read: value in Figure 3A, representative experiment, read-out: EC50 (PPARγ, representative dose response, Figure 3A).
[5] abbreviates: Human AhR Reporter Assay System, two independent dose responses, 3 to 4 replicas per assay, mean ± spread (n = 2), read-out: EC50 (M) AhR.
Where [6] appears, read: value in Figure 1, representative experiment, read-out: EC50 (AhR, representative dose response, Figure 1).

Where two headings read alike, the source gives them in different places.

With `N[C@@H](Cc1c[nH]c2ccc(O)cc12)C(=O)O` [5(OH)tryptophan, 5-hydroxytryptophan], the “stimulation of transcriptional activity of (PPRE)3-containing ApoA-II gene promoter (luciferase, RLU)” value (from here on “stimulation”) in experiment [1] is “statistically significant stimulation”.
On to `COc1ccc2[nH]cc(CCN)c2c1` [5-MTT, 5-methoxytryptamine], for which the EC50 in experiment [2] (EC50 (M) PPARγ, LanthaScreen TR-FRET PPARγ coactivator assay, PPARγ LBD, two independent dose responses, 3 to 4 replicas per assay) stood at 3e-05 M; in experiment [2] (EC50 (PPARγ, representative dose response, Figure 3A), value in Figure 3A, representative experiment), 6.3e-05 M; on AhR (EC50 (AhR, representative dose response, Figure 1), value in Figure 1, representative experiment) it was 0.0005 M; on AhR (EC50 (M) AhR, Human AhR Reporter Assay System, two independent dose responses, 3 to 4 replicas per assay, mean ± spread (n = 2)), 0.00029 M.
Turning to `COc1cc2c(CCNC(C)=O)c[nH]c2cc1O` [6-Hydroxymelatonin, 6-hydroxymelatonin], the “stimulation” value in experiment [1] was “statistically significant stimulation”. Besides, the EC50 was 0.0037 M in experiment [2] (setting [3]), 0.0001 M in experiment [2] (setting [4]), 3.1e-05 M on AhR (setting [5]) and 3.3e-05 M on AhR (setting [6]).
Taken in the same sequence, the figures for `COc1ccc(NC=O)c(C(=O)CCNC(C)=O)c1` [AFMK, N^1-acetyl-N^2-formyl-5-methoxykynuramine] were “statistically significant stimulation”, 0.00028 M, 0.00011 M, 4.4e-05 M and 7.5e-05 M.
With `COc1ccc2[nH]cc(CCNC(C)=O)c2c1` [Melatonin, N-acetyl-5-methoxytryptamine, reference compound], the “stimulation” value in experiment [1] is “statistically significant stimulation”. The EC50 was 0.0012 M in experiment [2] (setting [3]) and 0.00095 M in experiment [2] (setting [4]).

For orientation: EC50 means the midpoint of the concentration-response curve.
